The record followed here is patent publication US9428790B2, “Simultaneous measurement of thrombin generation and clot strength in plasma and whole blood” (SYNAPSE B.V., priority 2012, dated 2016).

Holding throughout (type): biochemical
The test system of data set [1] is fibrin polymerization. The data set is described as follows: Clot strength (viscosity) in triggered platelet-poor plasma on rotary rheometer with Doolittle peptide. Particulars: 0.5 mM up to 2 mM peptide, shear rate 300/s, 5 pM TF, 4 μM PL, FIG. 6 upper panel. On the procedure:
(§1) Blood was obtained through venipuncture (1 volume tri-sodium citrate 0.13M to 9 volumes blood). Free flow or minimal suction should be employed, and vacuum containers avoided. Platelet poor plasma (PPP) was obtained by centrifugation of blood twice at 2630 g for 10 min.
(§2) Recombinant relipidated tissue factor (rTF) not containing polybrene or Ca^++ was from Dade Behring (Marburg, Germany). For each experiment, a fresh mixture of Tissue Factor (TF) and phospholipids vesicles (PL) (Avanti, Alabaster, Ala., USA) was prepared, resulting in a final concentration of 5 pM TF and 4 μM PL in Hepes buffer (20 mM, pH 7.35) containing 5 mg/l BSA (Sigma, A-7030). Recombinant tissue plasminogen activator (tPA) was obtained from Boehringer Ingelheim GmbH, Germany as actylase™. […] Upon splitting by thrombin, it releases the fluorescent rhodamine (Rho), which is measured by a 470 nm excitation and a 520 emission filter set. […] The by plasmin released fluorescent 7-Amino-4-methylcoumarin (AMC) is measured by a 365 nm excitation and a 430 nm emission filter set. […]
(§3) Using a signal substrate with a fluorescent leaving group, thrombin generation was measured via a fluorescence detector. The strength of the formed fibrin clot was monitored by an oscillating or rotating measuring system of a specially designed rheometer (Physica MCR 301, Anton Paar Germany GmbH, Ostfildern). […]

Data set [2] relates to thrombin generation. Briefly: Thrombin generation (fluorogenic substrate, calibrated) in triggered platelet-poor plasma with Doolittle peptide. Particulars: 0.5 mM up to 2 mM peptide, shear rate 300/s, FIG. 6 lower panel. On the procedure:
as §1
as §2, with “A-7030).” for “A-7030). Recombinant tissue plasminogen activator (tPA) was obtained from Boehringer Ingelheim GmbH, Germany as actylase™.”
The calibrator, α2M-Thrombin complex (α2MT), was prepared in house as previously described. The concentration of α2M-Thrombin is measured by its ability to hydrolyze the chromogenic substrate S2238. […] After adding bovine antithrombin and heparin (LEO) this material was ready for use as a thrombin calibrator.
Using a signal substrate with a fluorescent leaving group, thrombin generation was measured via a fluorescence detector. […]

Data set [3] concerns fibrin. Briefly: Clot strength (viscosity) in tPA-triggered platelet-poor plasma on rotary rheometer. Conditions: 100 U/ml tPA, rotation 300/s, FIG. 8 lower panel. On the procedure: as §1, §2, §3
In data set [4] the target is T1, plasmin (Homo sapiens, UniProt P00747).
T1 construct: from tissue; host or cells: platelet-poor plasma from citrated blood
T1 sequence (P00747 581-810 limits assumed): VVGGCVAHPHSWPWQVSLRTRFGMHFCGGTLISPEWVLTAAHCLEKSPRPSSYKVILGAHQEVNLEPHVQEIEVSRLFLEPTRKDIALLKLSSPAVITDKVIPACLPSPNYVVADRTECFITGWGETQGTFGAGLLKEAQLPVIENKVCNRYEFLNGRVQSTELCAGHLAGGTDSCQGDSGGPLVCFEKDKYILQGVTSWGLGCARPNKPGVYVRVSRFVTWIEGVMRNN
T1 sequence (P00747 97-580 partner limits assumed): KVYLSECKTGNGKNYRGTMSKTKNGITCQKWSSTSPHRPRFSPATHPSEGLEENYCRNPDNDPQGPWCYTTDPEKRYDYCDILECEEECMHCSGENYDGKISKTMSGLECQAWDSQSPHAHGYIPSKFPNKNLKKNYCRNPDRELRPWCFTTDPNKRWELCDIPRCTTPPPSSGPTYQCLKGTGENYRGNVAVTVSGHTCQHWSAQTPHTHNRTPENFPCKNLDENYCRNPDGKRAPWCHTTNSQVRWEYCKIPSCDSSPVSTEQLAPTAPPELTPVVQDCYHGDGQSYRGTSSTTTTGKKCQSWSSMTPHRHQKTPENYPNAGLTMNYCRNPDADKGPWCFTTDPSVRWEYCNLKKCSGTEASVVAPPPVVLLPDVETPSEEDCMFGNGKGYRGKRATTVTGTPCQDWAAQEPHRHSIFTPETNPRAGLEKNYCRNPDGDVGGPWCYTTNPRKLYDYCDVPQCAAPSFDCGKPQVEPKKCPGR
The data set is described as follows: Plasmin generation (raw fluorescence, H-Ala-Leu-Lys-AMC) in tPA-triggered platelet-poor plasma. Conditions: 100 U/ml tPA, rotation 300/s, FIG. 8 upper panel. On the procedure:
as §1
as §2, with “A-7030).” for “A-7030). Recombinant tissue plasminogen activator (tPA) was obtained from Boehringer Ingelheim GmbH, Germany as actylase™.”
A total of 700 μl (in case of plasma) or 800 μl (in case of blood) sample and substrate was added on the thermostated sample holder at 37° C. of the rheometer. […] Immediately after addition of the FluCa, the viscosity (or Torque in case of oscillation of the measuring system) and fluorescence were measured every 10 seconds and every second at 470/520 nm respectively. […]

For data set [5], the system named is fibrinolysis. Briefly: Clot strength (torque, oscillation mode) in triggered whole blood with tPA. Conditions: 300 U/ml tPA, oscillation 10 Hz, angle 1°, inset. On the procedure:
as §1, §2, §3

In the case of “Gly-Pro-Arg-Pro (GPRP; printed: Gly-Pro-Arg-Pro) [Doolittle peptide]”, in data set [1], the “viscosity of the sample compared to the control sample” value is “significantly decreased the viscosity”. The “effect on the thrombin generation” value in data set [2] is listed as “minimal”.
As for “tPA: Recombinant tissue plasminogen activator (tPA) obtained from Boehringer Ingelheim GmbH as actylase™”, the “viscosity (degradation of fibrin)” value in data set [3] is on record as “decrease in viscosity”. The “plasmin generation (raw fluorescence)” value in data set [4] is “activation of plasmin”. The “fibrinolysis (torque)” value in data set [5] is given as “fibrinolysis could be followed”.
